The values that follow come from PMC11369887 (RSC Advances, 2024).

Data set [1] has as its system human breast cancer (MCF-7) cell line.
Description: (§1) The newly synthesized compounds were evaluated for their in vitro growth inhibition of three human tumor cell lines representing different tumor types, namely, breast adenocarcinoma (MCF-7), liver hepatocellular carcinoma (Hep3B) and leukemia-SR. […] The breast tumor cell line (MCF-7), hepatic tumor cell line (Hep3B) and leukemia-SR cell line were obtained from American Type Culture Collection. The cells were cultured using Dulbecco's modified Eagle's medium (DMEM) (Invitrogen/Life Technologies) supplemented with 10% fetal bovine serum (FBS) (Hyclone), 10 μg mL^−1 of insulin (Sigma), and 1% penicillin–streptomycin. […] For 24 hours before to the MTT experiment, plate cells (densities of 1.2–1.8 × 10 000 cells per well) were layered in a 96-well plate containing 100 μL of the tested chemical per well and 100 μL of full growth media.
(§2) The culture medium was transferred to a centrifuge tube. […] Then 2.0 to 3.0 mL of Trypsin EDTA solution was added to the flask, and the cells were observed using an inverted microscope until the cell layer became dispersed (usually within 5–15 min). After that, 6.0 to 8.0 mL of complete growth medium was added and the cells were aspirated by gently pipetting. The cell suspension was transferred to the centrifuge tube with the medium and cells from step 1 and centrifuged at approximately 125 g for 5–10 min. The supernatant was discarded. The cell pellet was re-suspended in a fresh growth medium. Appropriate aliquots of the cell suspension were added to new culture vessels.
(§3) For the best results, the cells in the log phase of growth should be employed and the final cell number should not exceed 10^6 cells per cm^2. Each test should include a blank containing a complete medium without cells. Cultures from the incubator were transferred into a laminar flow hood or other sterile work area. […] Reconstituted MTT was added in an amount equal to 10% of the culture medium volume. Cultures were returned to the incubator for 2–4 h depending on the cell type and maximum cell density. An incubation period of 2 h is generally adequate but may be lengthened for low cell densities or cells with lower metabolic activity. The incubation times should be consistent when making comparisons. […] Occasionally, especially in dense cultures, pipetting up and down may be required to completely dissolve the MTT formazan crystals. The absorbance was spectrophotometrically measured at a wavelength of 570 nm. The background absorbance of multiwell plates was measured at 690 nm and subtracted from the 450 nm measurement. Tests performed in multiwell plates might be read using an appropriate type of plate reader or the contents of individual wells might be transferred to appropriate size cuvettes for spectrophotometric measurement.
The test system of data set [2] is human liver cancer (Hep3B) cell line.
Description: as §1, §2, §3
The test system of data set [3] is leukemia (L-SR) cell line.
Description: as §1, §2, §3

Broadly, the IC50 is the midpoint of a concentration-inhibition curve. “9-Fluoro-3-methyl-6-((3-methyl-5-oxo-4,5-dihydro-1H-pyrazol-1-yl)carbonyl)-10-(4-methylpiperazin-1-yl)-2,3-dihydro-7H-[1,4]oxazino[2,3,4-ij]quinolin-7-one [Compound 6]”: the IC50 in data set [1] is 40.6 ± 1.88 µM; in data set [2], 13.1 ± 0.61 µM; in data set [3] it was 28.9 ± 1.75 µM.
